Assay results as given in ChEMBL document CHEMBL5150044, “Macrocyclization of Quinazoline-Based EGFR Inhibitors Leads to Exclusive Mutant Selectivity for EGFR L858R and Del19” (J Med Chem, 2022).
Calls of active or inactive are those of the source. The calls are words filed in the database; no cut-off is given here.

Assays:
[1] = molecular target: Epidermal growth factor receptor (Homo sapiens, UniProt P00533)
[2] = molecular target: Epidermal growth factor receptor (Homo sapiens, UniProt P00533, EX19DEL)
[3] = molecular target: Epidermal growth factor receptor (Homo sapiens, UniProt P00533, L858R)
[4] = molecular target: T1, Cyclin-G-associated kinase (Homo sapiens) (UniProt O14976); experiment: Binding affinity to recombinant GAK (unknown origin) assessed as change in melting temperature 10 uM by differential scanning fluorimetry
T1 sequence (whole entry): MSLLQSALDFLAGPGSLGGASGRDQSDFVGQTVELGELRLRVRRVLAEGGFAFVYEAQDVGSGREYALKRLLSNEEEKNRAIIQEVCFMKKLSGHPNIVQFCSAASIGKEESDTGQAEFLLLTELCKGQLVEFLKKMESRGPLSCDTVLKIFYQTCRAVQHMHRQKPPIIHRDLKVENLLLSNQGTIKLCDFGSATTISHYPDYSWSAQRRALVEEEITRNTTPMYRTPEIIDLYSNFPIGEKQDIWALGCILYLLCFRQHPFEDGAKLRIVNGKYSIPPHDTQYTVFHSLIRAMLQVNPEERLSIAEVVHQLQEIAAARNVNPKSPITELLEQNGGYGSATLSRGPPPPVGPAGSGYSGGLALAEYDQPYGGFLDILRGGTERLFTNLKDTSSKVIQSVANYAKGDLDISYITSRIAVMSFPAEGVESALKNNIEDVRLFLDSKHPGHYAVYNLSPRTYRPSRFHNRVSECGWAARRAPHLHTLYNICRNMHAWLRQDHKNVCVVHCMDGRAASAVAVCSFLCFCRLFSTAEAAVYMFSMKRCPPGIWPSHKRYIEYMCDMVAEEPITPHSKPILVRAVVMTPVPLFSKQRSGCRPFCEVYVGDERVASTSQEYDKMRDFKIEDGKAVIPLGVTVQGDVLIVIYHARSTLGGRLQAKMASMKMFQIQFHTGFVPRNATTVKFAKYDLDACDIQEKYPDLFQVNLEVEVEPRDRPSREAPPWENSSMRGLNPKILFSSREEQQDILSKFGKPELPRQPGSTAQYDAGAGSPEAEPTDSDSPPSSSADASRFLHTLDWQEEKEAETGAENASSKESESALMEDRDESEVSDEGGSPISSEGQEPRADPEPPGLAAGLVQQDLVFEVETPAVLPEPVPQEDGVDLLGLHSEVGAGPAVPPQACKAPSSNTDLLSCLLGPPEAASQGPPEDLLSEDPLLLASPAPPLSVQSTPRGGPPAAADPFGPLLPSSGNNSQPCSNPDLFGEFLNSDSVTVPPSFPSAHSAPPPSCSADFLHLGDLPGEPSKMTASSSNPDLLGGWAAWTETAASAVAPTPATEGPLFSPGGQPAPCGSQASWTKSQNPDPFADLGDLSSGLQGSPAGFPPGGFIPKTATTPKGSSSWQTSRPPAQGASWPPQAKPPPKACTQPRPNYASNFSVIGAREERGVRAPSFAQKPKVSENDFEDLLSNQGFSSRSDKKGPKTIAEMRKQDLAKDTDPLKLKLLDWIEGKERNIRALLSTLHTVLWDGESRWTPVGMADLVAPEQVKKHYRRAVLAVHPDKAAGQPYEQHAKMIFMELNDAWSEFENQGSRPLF

BaF3 [5] = experiment: cells; format: functional, cell-based; conditions: Mus musculus, BaF3, 72 h
Description: Antiproliferative activity against mouse BaF3 cells expressing Del19 assessed as cell viability measured after 72 hrs hrs by CellTiter Glo assay

BaF3 [6] = experiment: cells; format: functional, cell-based; conditions: Mus musculus, BaF3, 72 h; remark: listed apart in the source
[7] = molecular target: T2, Mitogen-activated protein kinase 1 and 3 (ERK2 and ERK1) (Mus musculus) (UniProt P63085+Q63844); experiment: Inhibition of ERK1/2 phosphorylation in mouse BaF3 cells harboring L858R mutant assessed as ERK1/2 phosphorylation at 10 to 1000 nM incubated for 8 hrs by Western blot analysis; format: cell-based; conditions: dose 10-1000 nM
[8] = molecular target: T2, Mitogen-activated protein kinase 1 and 3 (ERK2 and ERK1) (Mus musculus); format: cell-based; conditions: BaF3, dose 10-1000 nM, time 8.0 hrs
[9] = molecular target: RAC-alpha serine/threonine-protein kinase (Mus musculus) (UniProt P31750); format: cell-based; conditions: BaF3, dose 10-1000 nM, time 8.0 hrs
[10] = system: Epidermal growth factor receptor (Homo sapiens), P04626+P00533+Q15303+P21860 [L858R]; conditions: Mus musculus; BaF3; dose 10-1000 nM, time 8.0 hrs
BaF3 [11] = experiment: cells; conditions: Mus musculus, BaF3, 72 h

T2 sequence (P63085 whole entry, looked up): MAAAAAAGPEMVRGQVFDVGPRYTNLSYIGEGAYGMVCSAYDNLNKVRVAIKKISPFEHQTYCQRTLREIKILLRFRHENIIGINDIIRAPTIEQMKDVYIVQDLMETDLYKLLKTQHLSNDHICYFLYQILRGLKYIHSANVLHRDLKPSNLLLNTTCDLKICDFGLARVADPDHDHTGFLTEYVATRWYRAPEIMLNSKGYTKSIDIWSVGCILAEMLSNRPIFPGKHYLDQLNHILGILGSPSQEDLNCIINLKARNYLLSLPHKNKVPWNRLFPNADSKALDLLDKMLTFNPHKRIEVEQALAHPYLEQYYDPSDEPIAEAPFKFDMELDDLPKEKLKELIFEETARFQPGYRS
T2 sequence (Q63844 whole entry, looked up): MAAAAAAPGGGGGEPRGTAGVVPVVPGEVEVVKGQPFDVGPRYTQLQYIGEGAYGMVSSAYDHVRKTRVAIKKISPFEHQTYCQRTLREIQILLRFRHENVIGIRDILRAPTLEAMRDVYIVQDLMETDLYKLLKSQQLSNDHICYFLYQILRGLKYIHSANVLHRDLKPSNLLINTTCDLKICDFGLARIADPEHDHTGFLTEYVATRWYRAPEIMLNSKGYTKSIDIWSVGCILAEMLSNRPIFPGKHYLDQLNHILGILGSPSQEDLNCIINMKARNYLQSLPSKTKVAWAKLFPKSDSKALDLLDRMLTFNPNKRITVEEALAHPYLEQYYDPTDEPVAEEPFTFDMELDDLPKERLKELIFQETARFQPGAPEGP
RAC-alpha serine/threonine-protein kinase (Mus musculus), sequence (P31750 whole entry): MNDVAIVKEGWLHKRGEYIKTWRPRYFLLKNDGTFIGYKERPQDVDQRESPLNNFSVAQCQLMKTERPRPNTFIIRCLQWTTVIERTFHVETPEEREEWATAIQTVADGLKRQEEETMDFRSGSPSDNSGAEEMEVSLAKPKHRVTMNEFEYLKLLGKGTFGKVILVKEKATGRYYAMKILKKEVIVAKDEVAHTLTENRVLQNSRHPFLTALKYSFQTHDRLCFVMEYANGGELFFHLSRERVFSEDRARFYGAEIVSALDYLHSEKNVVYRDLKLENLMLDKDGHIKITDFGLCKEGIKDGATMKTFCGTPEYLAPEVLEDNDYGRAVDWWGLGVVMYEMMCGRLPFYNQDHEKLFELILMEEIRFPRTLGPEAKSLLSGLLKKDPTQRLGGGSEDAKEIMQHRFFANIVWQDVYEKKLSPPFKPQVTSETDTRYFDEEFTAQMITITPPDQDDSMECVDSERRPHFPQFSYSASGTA
Epidermal growth factor receptor (Homo sapiens, UniProt P00533, L858R), sequence (P00533 25-1210 L858R limits assumed): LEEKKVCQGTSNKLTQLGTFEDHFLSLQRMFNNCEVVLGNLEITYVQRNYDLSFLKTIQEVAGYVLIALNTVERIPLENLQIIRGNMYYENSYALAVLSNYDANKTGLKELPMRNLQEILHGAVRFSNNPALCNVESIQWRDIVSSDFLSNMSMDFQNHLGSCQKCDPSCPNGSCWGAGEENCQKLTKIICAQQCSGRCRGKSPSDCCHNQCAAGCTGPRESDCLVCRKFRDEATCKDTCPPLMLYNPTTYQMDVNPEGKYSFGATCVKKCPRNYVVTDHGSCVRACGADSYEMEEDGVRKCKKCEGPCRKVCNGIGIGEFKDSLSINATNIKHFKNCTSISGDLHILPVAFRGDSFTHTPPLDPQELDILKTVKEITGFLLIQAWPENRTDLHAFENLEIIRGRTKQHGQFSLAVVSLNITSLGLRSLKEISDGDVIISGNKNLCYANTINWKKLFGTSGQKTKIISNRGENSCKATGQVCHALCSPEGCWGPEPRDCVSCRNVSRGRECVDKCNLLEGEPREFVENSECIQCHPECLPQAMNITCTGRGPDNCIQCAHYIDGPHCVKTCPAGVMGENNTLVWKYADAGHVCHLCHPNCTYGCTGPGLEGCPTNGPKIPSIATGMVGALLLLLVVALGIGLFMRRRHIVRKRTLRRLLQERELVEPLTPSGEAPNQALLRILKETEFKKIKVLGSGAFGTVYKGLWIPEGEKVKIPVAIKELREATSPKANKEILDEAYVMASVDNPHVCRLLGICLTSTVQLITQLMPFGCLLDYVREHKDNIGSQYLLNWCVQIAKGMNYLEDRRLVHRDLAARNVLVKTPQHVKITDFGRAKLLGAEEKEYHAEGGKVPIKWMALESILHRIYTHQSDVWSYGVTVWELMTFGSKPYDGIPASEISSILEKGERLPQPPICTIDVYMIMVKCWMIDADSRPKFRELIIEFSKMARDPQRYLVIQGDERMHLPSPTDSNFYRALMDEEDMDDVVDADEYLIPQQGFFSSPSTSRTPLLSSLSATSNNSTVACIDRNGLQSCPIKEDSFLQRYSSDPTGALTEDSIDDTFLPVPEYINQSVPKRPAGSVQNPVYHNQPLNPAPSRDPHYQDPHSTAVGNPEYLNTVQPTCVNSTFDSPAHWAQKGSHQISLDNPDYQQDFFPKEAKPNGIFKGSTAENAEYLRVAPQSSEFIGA
Epidermal growth factor receptor (Homo sapiens, UniProt P00533, EX19DEL), sequence (P00533 whole entry, looked up, stated change not applied): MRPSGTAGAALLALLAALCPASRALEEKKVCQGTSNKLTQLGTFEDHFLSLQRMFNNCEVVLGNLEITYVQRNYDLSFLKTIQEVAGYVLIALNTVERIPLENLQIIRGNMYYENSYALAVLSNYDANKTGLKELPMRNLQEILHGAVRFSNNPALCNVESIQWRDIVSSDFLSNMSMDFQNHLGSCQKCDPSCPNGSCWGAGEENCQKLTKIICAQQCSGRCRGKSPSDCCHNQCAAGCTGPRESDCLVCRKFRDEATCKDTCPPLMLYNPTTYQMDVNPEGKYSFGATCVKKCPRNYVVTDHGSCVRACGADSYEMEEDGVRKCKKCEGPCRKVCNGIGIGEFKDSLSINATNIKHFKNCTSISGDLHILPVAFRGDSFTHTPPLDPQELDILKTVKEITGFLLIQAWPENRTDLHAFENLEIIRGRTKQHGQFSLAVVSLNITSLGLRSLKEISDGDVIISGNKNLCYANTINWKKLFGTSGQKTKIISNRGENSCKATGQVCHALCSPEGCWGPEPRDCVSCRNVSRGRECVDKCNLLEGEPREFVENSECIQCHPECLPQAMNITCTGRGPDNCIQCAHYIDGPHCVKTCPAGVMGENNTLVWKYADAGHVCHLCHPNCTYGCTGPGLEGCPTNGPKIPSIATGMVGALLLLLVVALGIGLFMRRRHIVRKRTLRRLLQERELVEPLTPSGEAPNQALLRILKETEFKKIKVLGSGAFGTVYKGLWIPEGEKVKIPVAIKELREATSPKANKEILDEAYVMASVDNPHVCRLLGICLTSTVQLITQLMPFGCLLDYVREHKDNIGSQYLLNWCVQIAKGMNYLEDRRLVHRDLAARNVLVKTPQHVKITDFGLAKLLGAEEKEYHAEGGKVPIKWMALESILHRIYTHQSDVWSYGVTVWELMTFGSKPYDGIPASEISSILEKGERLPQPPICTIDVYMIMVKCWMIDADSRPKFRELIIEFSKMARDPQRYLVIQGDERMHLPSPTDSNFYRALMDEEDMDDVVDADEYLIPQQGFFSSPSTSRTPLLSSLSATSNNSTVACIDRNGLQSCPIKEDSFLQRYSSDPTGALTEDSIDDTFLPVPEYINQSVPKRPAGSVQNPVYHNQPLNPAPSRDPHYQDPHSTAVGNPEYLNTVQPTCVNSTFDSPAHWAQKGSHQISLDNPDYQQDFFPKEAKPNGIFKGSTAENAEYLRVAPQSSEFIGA
Epidermal growth factor receptor (Homo sapiens, UniProt P00533), sequence (P00533 whole entry): as the sequence (P00533 whole entry, looked up, stated change not applied) above

Work on `COc1cc2ncnc(Nc3cc(Cl)c(F)cc3O)c2cc1O` yielded an IC50 [1] of 1800 nM, an IC50 [2] of 11.5 nM and an IC50 [3] of 18.8 nM. The ΔTm [4] was over 3 °C, the IC50 (BaF3 [5]) was 121 nM and the IC50 (BaF3 [6]) was 5180 nM. For the same compound, the inhibition [7] was “Active”, the inhibition [8] was “Active” and the inhibition [9] was “Active”. The inhibition [10] was “Active” and the IC50 (BaF3 [11]) was 141 nM.
